One experiment deals with NMDA receptor. The experiment can be described thus: Displacement of tritiated CPP ([3H] CPP binding) in rat frontal cortex homogenates. As for the experimental part:
CPP binding at 10 μM concentrations. The IC50 calculated for these compounds is as follows: […]

The test system of another experiment is NMDA-lethality. The experiment can be described thus: NMDA-lethality model in mice (antagonism of NMDA in vivo, survival). Set-up: species or system mouse (male Swiss-albino, CD-1 strain). Conditions: Mus musculus, ip, 0.5 h; test compound i.p. 30 min before NMDA 195 mg/kg i.p.; 30 min observation. How it is done:
Male Swiss-albino mice (CD-1 strain, Charles River) 18-22 grams in weight, after 18 hours of food deprivation, were habituated to an observation chamber for 30 minutes. The mice were pretreated with the representative test compound followed thirty minutes later with NMDA, 195 mg/kg, i.p., which is a dose normally causing 90% mortality resulting from motor seizures including uncontrollable hind leg scratching or limbs and/or torso muscle jerking with loss of righting reflex followed by death within the 30 minute observation period after NMDA administration. From the latter, the ED50 for survival is determined.

Ten compounds from patent US5118675A, “Quinoxaline phosphono-amino acids” (American Home Products Corporation, priority 1991, dated 1992) can be followed below.

The IC50 is the concentration needed to halve the response being measured. A lower IC50 goes with greater potency in that assay. As usually defined, the ED50 is the dose that gives a 50% effect, or the effect in half of the subjects. High values mean a need for a large dose, low ones an effect at a small dose.

As to `COc1cc2nc(CC(N)C(=O)O)c(CP(=O)(O)O)nc2cc1OC` (stereo not drawn) [Example 11, α-Amino-6,7-dimethoxy-3-(phosphonomethyl)-2-quinoxalinepropanoic Acid], the IC50 at NMDA receptor is 832 nM.

The compound “D(-)-2-amino-5-phosphono-heptanoic acid [D(-)-2-amino-5-phosphonoheptanoic acid, reference compound]” registered an IC50 on NMDA receptor of 639 nM. This IC50 and that of the compound before are within 1.5-fold of each other.

Take `NC(Cc1nc2ccccc2nc1CP(=O)(O)O)C(=O)O` (single isomer, unassigned) [Laevoisomer of Example 3, (-)-α-amino-3-(phosphonomethyl)-2-quinoxalinepropanoic acid]: the ED50 in the experiment with NMDA-lethality worked out at 1.52 mg/kg. The compound also gave an IC50 on NMDA receptor of 29 nM.

With `Cc1cc2nc(CC(N)C(=O)O)c(CP(=O)(O)O)nc2cc1C` (stereo not drawn) [Example 4, α-Amino-6,7-dimethyl-3-(phosphonomethyl)-2-quinoxalinepropanoic Acid], the IC50 at NMDA receptor came to 22 nM.

In turn, `N[C@@H](CCC(=O)O)C(=O)O` [L-glutamic acid, reference compound] gave an IC50 on NMDA receptor of 64 nM. This IC50 is about 2.9-fold higher than that of the compound before.

In the case of `NC(Cc1nc2cc(Cl)ccc2nc1CP(=O)(O)O)C(=O)O` (stereo not drawn) [Example 8, α-Amino-7-chloro-3-(phosphonomethyl)-2-quinoxalinepropanoic Acid], the ED50 in the experiment on NMDA-lethality came to 1.13 mg/kg. Moreover, the IC50 on NMDA receptor is 24 nM.

`NC(Cc1nc2ccccc2nc1CP(=O)(O)O)C(=O)O` (racemic) [Example 1, α-Amino-3-(phosphonomethyl)-2-quinoxalinepropanoic Acid] yielded an ED50 in the experiment with NMDA-lethality of 3.72 mg/kg. This compound also yielded an IC50 at NMDA receptor of 110 nM.

In the case of `NC(Cc1nc2cc(F)c(F)cc2nc1CP(=O)(O)O)C(=O)O` (stereo not drawn) [Example 10, α-Amino-6,7-difluoro-3-(phosphonomethyl)-2-quinoxalinepropanoic Acid], the IC50 at NMDA receptor came to 166 nM.

Consider `NC(Cc1nc2cc3ccccc3cc2nc1CP(=O)(O)O)C(=O)O` (stereo not drawn) [Example 5, α-Amino-3-(phosphonomethyl)-2-benzo[g]quinoxalinepropanoic Acid], for which it took a dose of 5.3 mg/kg to reach the 50% effect level with NMDA-lethality (ED50). In addition, the IC50 at NMDA receptor is 6 nM.

As to `NC(Cc1nc2cc(Cl)c(Cl)cc2nc1CP(=O)(O)O)C(=O)O` (stereo not drawn) [Example 7, α-Amino-6,7-dichloro-3-(phosphonomethyl)-2-quinoxalinepropanoic Acid], the ED50 in the experiment with NMDA-lethality is 1.58 mg/kg. At NMDA receptor, the IC50 turned out to be 4 nM.
